Laboratory results from patent publication US20070032480A1, “Treatment of ischemia-induced arrhythmias” (The Johns Hopkins University, priority 2005, published 2007).
Entries after “also recorded” stand apart in the source; their conditions may differ.

Experiments:
[1] = tested on: Langendorff-perfused guinea pig hearts; assay: Baseline electrophysiological properties (APD, CV) of perfused hearts by optical mapping; settings: for baseline APD / baseline CV (conduction velocity): optimal concentration of each agent (4.6 μM FGIN-1-27, 0.2 μM CsA, 64 μM 4′Cl-DZP, 10 μM GLIBEN)
Procedure: All procedures involving the handling of animals were approved by the Animal Care and Use Committee of the Johns Hopkins University and adhered with public health service guidelines. As described in detail elsewhere (28), adult guinea pigs (n=48) were anesthetized with pentobarbital sodium (30 mg/kg ip), and retrogradely perfused as Langendorff preparations with oxygenated (95% 02-5% CO2) Tyrode solution containing (in mmol/l) 130 NaCl, 1.2 MgSO4, 4.75 KCl, 5.0 dextrose, and 1.25 CaCl2 (pH 7.40) at 36±1° C. Hearts were stained with the voltage-sensitive dye, di-4-ANEPPS (15 μmol/l) for 10 min, and then positioned in a chamber such that the mapping field was centered over a 0.8 cm diameter region of left ventricular epicardium, midway between apex and base. Gentle pressure was applied to the posterior surface of the heart with a movable piston to stabilize the mapped surface against the imaging window of the chamber allowing us to avoid the use of electromechanical inhibitors, which interfere with repolarization, and the incidence of arrhythmias. […] Pacing with a silver pin needle placed on the epicardium was performed intermittently and briefly at various times during the experimental protocol in order to obtain a quantitative assessment of epicardial conduction velocity at each time point. Pacing was then turned off in order to determine the intrinsic response of hearts to the ischemia reperfusion protocol independent of exogenous stimulation.
(§1) An optical mapping system was designed with the capability of simultaneously recording transmembrane action potentials (APs) from 464 sites. Emitted fluorescence was collected using a custom designed optical macroscope imaging system consisting of a high numerical aperture photographic lens, a dichroic mirror and an emission filter as previously described in detail (29). Emitted light exiting the detector lens was filtered (>610 nm) and focused onto the photodiode array. Photocurrent from each photodiode underwent current-to-voltage conversion, amplification, band-pass filtering, multiplexing, and digitization (1600 samples/s per channel) with 16-bit precision.
Following extraction and staining with di-4-ANEPPS, hearts were stabilized for 30 min. […] Pharmacological agents were delivered to the heart in one of two ways: 1) continuously, during control perfusion and reperfusion, or 2) in a high dose bolus (5-10× the optimal equilibration concentration), injected into the coronaries during the ischemic phase, 5 min before the onset of reperfusion. […] Following baseline perfusion at 15-20 mL/min to maintain a perfusion pressure of 60-70 mmHg, flow was completely stopped for 30 min (Ischemia phase), and APs (3.8 s epochs) were recorded at 1-min intervals. Following the ischemia phase, perfusion was restored initially at the same flow rate and then was adjusted slightly to exactly match the perfusion pressure during the baseline perfusion phase (Reperfusion phase). The optimal equilibration concentration of each agent was determined by its effects on ischemia-induced AP shortening, recovery of the AP duration (APD), and/or prevention of arrhythmias upon reperfusion.
In order to investigate whether mitochondrial ROS-induced activation of IMAC underlies the electrical dysfunction of hearts subjected to IR, a protocol for reproducibly inducing ventricular fibrillation (VF) in Langendorff-perfused guinea pig hearts was established.

[2] = tested on: freshly isolated adult guinea pig ventricular myocytes; assay: ΔΨm oscillations and action potentials in isolated cardiomyocytes (two-photon TMRM imaging with current-clamp); format: cell-based
[3] = tested on: Langendorff-perfused guinea pig hearts; assay: Electrophysiological response to 30 min no-flow global ischemia; settings: for blunting of AP shortening and persistence of APs during ischemia at the highest concentration: 100 μM, 30 min no-flow ischemia; for ischemia-induced APD shortening: pre-treatment before no-flow ischemia; for ischemia-induced APD shortening / ischemia-induced reduction of normalized APA and upstroke velocity (dF/dt): versus control hearts; for ischemia-induced reduction of normalized APA and upstroke velocity (dF/dt): relative to pre-ischemia baseline; for time for the onset of inexcitability during ischemia: no-flow ischemia, control hearts ˜18 min
Procedure: (§2) All procedures involving the handling of animals were approved by the Animal Care and Use Committee of the Johns Hopkins University and adhered with public health service guidelines. As described in detail elsewhere (28), adult guinea pigs (n=48) were anesthetized with pentobarbital sodium (30 mg/kg ip), and retrogradely perfused as Langendorff preparations with oxygenated (95% 02-5% CO2) Tyrode solution containing (in mmol/l) 130 NaCl, 1.2 MgSO4, 4.75 KCl, 5.0 dextrose, and 1.25 CaCl2 (pH 7.40) at 36±1° C. Hearts were stained with the voltage-sensitive dye, di-4-ANEPPS (15 μmol/l) for 10 min, and then positioned in a chamber such that the mapping field was centered over a 0.8 cm diameter region of left ventricular epicardium, midway between apex and base. Gentle pressure was applied to the posterior surface of the heart with a movable piston to stabilize the mapped surface against the imaging window of the chamber allowing us to avoid the use of electromechanical inhibitors, which interfere with repolarization, and the incidence of arrhythmias. Although experiments were typically completed within 1.5 to 2 h, these preparations remained stable for over 4 h of perfusion. Pacing with a silver pin needle placed on the epicardium was performed intermittently and briefly at various times during the experimental protocol in order to obtain a quantitative assessment of epicardial conduction velocity at each time point. Pacing was then turned off in order to determine the intrinsic response of hearts to the ischemia reperfusion protocol independent of exogenous stimulation.
as §1
(§3) Following extraction and staining with di-4-ANEPPS, hearts were stabilized for 30 min. Monitoring of APs, perfusion pressure, coronary flow, and temperature ensured electrical stability in all preparations (n=48) used in this study. Pharmacological agents were delivered to the heart in one of two ways: 1) continuously, during control perfusion and reperfusion, or 2) in a high dose bolus (5-10× the optimal equilibration concentration), injected into the coronaries during the ischemic phase, 5 min before the onset of reperfusion. […] Following baseline perfusion at 15-20 mL/min to maintain a perfusion pressure of 60-70 mmHg, flow was completely stopped for 30 min (Ischemia phase), and APs (3.8 s epochs) were recorded at 1-min intervals. Following the ischemia phase, perfusion was restored initially at the same flow rate and then was adjusted slightly to exactly match the perfusion pressure during the baseline perfusion phase (Reperfusion phase). The optimal equilibration concentration of each agent was determined by its effects on ischemia-induced AP shortening, recovery of the AP duration (APD), and/or prevention of arrhythmias upon reperfusion.
Next, the ability of any of these pharmacological interventions to modulate the electrophysiological response of hearts to no-flow global ischemia was tested. […] Also, APD shortening in ischemia was accompanied by progressive reduction of the AP upstroke velocity, which occurred over a similar time frame (see, for example, FIG. 4).
Ischemic elevation of extracellular K^+ concentration, which may be mediated in part by KATP channel opening, might also be expected to partially depolarize the cellular resting membrane potential. […]

[4] = tested on: Langendorff-perfused guinea pig hearts; assay: Response to reperfusion after 30 min ischemia (arrhythmias, AP recovery); settings: for period of electrical inexcitability upon reperfusion: 0.2 μM CsA, 4′-Cl-DZP pretreated hearts; for post-ischemic (reperfusion) arrhythmias, effect in words: reperfusion after 30 min ischemia
Procedure: as §2, §1, §3
Reperfusion of untreated control hearts was associated with sustained ventricular fibrillation (VF) in 89% of hearts (FIG. 5).

Question: What does the source list for `CN1C(=O)CN=C(c2ccc(Cl)cc2)c2cc(Cl)ccc21` [4′-Cl-DZP, 4′-chlorodiazepam]?
Answer: effect on APD or CV during baseline perfusion ([1]; 100 μM, baseline perfusion): no significant effect on APD or CV; also recorded: comparable; baseline APD ([1]; baseline perfusion): 188 ± 16 ms; baseline CV (conduction velocity) ([1]; baseline perfusion): 39 ± 5 cm/s; time from drug application to suppression of AP oscillations and stabilisation of APD90 ([2]; 64 μM): ≤ 2 min; oscillations in APD ([2]; current-clamp, laser-triggered oscillations, 64 μM): eliminated oscillations in APD; also recorded: APD oscillations are eliminated; whole-cell oscillations in ΔΨm ([2]; oscillations triggered by focal two-photon laser flash, TMRM fluorescence): suppressed whole-cell oscillations in ΔΨm; also recorded: interruption of mitochondrial oscillations with ΔΨm recovery; time to return of ΔΨm oscillations after washout of the compound ([2]; washout, FIG. 1A): ≤ 10 min; blunting of AP shortening and persistence of APs during ischemia at the highest concentration [3]: APs persisted even after 30 min of no-flow ischemia; blunting of AP shortening and persistence of APs during ischemia at the highest concentration ([3]; listed as 4′Cl-DZP): most effective in blunting AP shortening during ischemia; ischemia-induced APD shortening [3]: blunted APD shortening in a dose-dependent fashion; also recorded: blunted APD shortening during ischemia; ischemia-induced reduction of normalized APA and upstroke velocity (dF/dt) [3]: protected against such decrease in both parameters; period of electrical inexcitability upon reperfusion [4]: < 2 min; restoring the APD upon reperfusion and preventing arrhythmias ([4]; 100 μM versus 64 μM): not as effective as the lower concentration of 64 μM in restoring the APD upon reperfusion and preventing arrhythmias; prevention of reperfusion-related VF ([4]; 320 μM high dose bolus 5 min prior to onset of reperfusion): 4 of 4; prevention of reperfusion-related VF ([4]; 32-64 μM delivered continuously prior to ischemia): 6 of 8; hearts that exhibited no sustained arrhythmias upon reperfusion ([4]; all 4′-Cl-DZP treated hearts (continuous and bolus)): 10 of 12; recovery of the AP upon reperfusion ([4]; optimal concentrations (64 μM 4′-Cl-DZP, 0.2 μM CsA)): promoted the rapid recovery of the AP morphology and duration; post-ischemic (reperfusion) arrhythmias, effect in words [4]: markedly decreased the incidence of post-ischemic arrhythmias; also recorded: more effective than continuous inhibition of KATP channels; post-ischemic (reperfusion) arrhythmias, effect in words ([4]; listed as 4′CL-DZP): prevented reperfusion-related ventricular fibrillation

Question: Which “effect on APD and excitability during normal perfusion” value ([1]; 46 μM, normal perfusion) does the source give for `CCCCCCN(CCCCCC)C(=O)Cc1c(-c2ccc(F)cc2)[nH]c2ccccc12` [FGIN-1-27] here?
Answer: significant APD shortening and membrane inexcitability

Question: What about the “time from drug delivery to APD shortening and membrane inexcitability” value ([1]; 46 μM, normal perfusion) of the same compound?
Answer: ≤ 15 min

Question: What about the “baseline APD” value ([1]; baseline perfusion) of the same compound?
Answer: 174 ± 16 ms

Question: And the “baseline CV (conduction velocity)” value ([1]; baseline perfusion)?
Answer: 44 ± 6 cm/s

Question: What about the “time for the onset of inexcitability during ischemia” value [3] of the same compound?
Answer: 12.7 ± 2.6 min

Question: What about the “ischemia-induced APD shortening” value [3] of the same compound?
Answer: accelerated APD shortening during ischemia

Question: What about the “ischemia-induced reduction of normalized APA and upstroke velocity (dF/dt)” value [3] of the same compound?
Answer: accentuated the ischemia-induced reduction of APA and dF/dt; also recorded: more enhanced reduction of action potential amplitude

Question: What about the “slowing of CV during ischemia” value ([3]; versus untreated hearts) of the same compound?
Answer: disproportionate slowing of CV

Question: What about the “period of electrical inexcitability upon reperfusion” value [4] of the same compound?
Answer: prolonged period of electrical silence

Question: What about the “hearts with ventricular tachycardia (VT) upon reperfusion” value ([4]; FGIN-1-27 treated hearts) of the same compound?
Answer: 6 of 6

Question: And the “cycle length of VT upon reperfusion” value ([4]; compared to control hearts)?
Answer: significantly longer cycle length

Question: And the “post-ischemic (reperfusion) arrhythmias, effect in words” value [4]?
Answer: long period of electrical silence followed by ventricular tachycardia (VT) of long duration

Question: With `COc1ccc(Cl)cc1C(=O)NCCc1ccc(S(=O)(=O)NC(=O)NC2CCCCC2)cc1` [GLIBEN] as the compound, how does the “baseline APD” value ([1]; baseline perfusion) read?
Answer: 182 ± 16 ms

Question: And the “baseline CV (conduction velocity)” value ([1]; baseline perfusion)?
Answer: 41 ± 5 cm/s

Question: What about the “time for the onset of inexcitability during ischemia” value [3] of the same compound?
Answer: ~18 min

Question: What about the “ischemia-induced APD shortening” value [3] of the same compound?
Answer: marked reduction in the rate of APD shortening

Question: What about the “ischemia-induced reduction of normalized APA and upstroke velocity (dF/dt)” value [3] of the same compound?
Answer: protected against such decrease in both parameters

Question: What about the “hearts in which tachyarrhythmias were prevented” value ([4]; bolus dose given just prior to reperfusion) of the same compound?
Answer: 2 of 3
